“And” between values parts separate entries of the source, which are not always exact repeats. Equal entries are not always repeated.
Key:
in vitro = conditions: human
Description: (§1) Cytotoxicity of compounds on HepG2 and MCF-7 mammalian cell lines was determined by using a standard LDH assay. Briefly, HepG2 and MCF-7 cells were cultured in Eagle’s MEM medium (from Gibco) supplemented with 2 mM L-glutamine (Sigma), 100 U/mL penicillin (Sigma), and 100 μg/mL streptomycin (Sigma), and 10% FBS (Gibco) at 37 °C and under 5% CO2. Next, LDH assays were performed according to manufacturer instructions (Thermo Fisher Scientific, Massachusetts, USA). By using a CyQUANT LDH Cytotoxicity Assay Kit. Firstly, the cells were seeded in 96-well microtiter plates at 10^5 cells/mL (100 μL/well) and allowed to attach overnight. […] Lysis buffer (10 μL, Thermo Fisher Scientific) was then added to the maximal LDH activity control wells and incubated additional 45 minutes. The cell culture supernatant (50 μL) was then transferred to a new 96-well plate and mixed with 50 μL of the reaction mixture. After 30 minutes on room temperature, reactions were stopped with 50 μL of the Stop solution. Absorbance (490 nm and 680 nm) was measured with the automatic microplate reader Synergy 4 Hybrid Microplate Reader (BioTek, VT, USA). All experiments were performed in triplicates and repeated 3 times. Statistical significance (P < 0.05) was calculated with 2-tailed Welch’s t-test between treated groups and DMSO. The percentage of cytotoxicity was determined according to the following equation: %Cytotoxicity=(CompoundtreatedLDHactivity-SpontaneousLDHactivity/MaximumLDHactivity-SpontaneousLDHactivity)*100

HepG2 cells = conditions: LDH assay
Description: as §1

[1] = target: T1, S. aureus topoisomerase IV (Staphylococcus aureus, UniProt P0C1S7); assay: S. aureus topoisomerase IV gel-based assay; type: biochemical; conditions: quadruplicates
T1 construct: purchased Inspiralis Ltd., Norwich, UK

S. aureus = assay: pH-dependent MIC determination; type: cell-based; conditions: Staphylococcus aureus
Description: MICs were determined using a standard serial broth microdilution technique according to the CLSI guidelines. Briefly, bacterial strains were inoculated onto MHBII agar plates and were grown overnight at 37 °C. Next, 3 individual colonies from each strain were inoculated into 1 mL MHBII medium and propagated at 37 °C, 250 rpm overnight. In the cases of Enterococcus and Streptococcus sp., cells were plated to BHI agar plates, and BHI broth was used to determine MICs. […] Following dilutions, each well was seeded with 5×10^4 bacterial cells. All measurements were performed in 3 parallel replicates and to avoid possible edge effects in microwell plates, side rows (A and H) were filled with sterile medium. Following inoculations, plates were covered with lids and wrapped in polyethylene plastic bags to minimize evaporation but allow for O2 transfer. Plates were incubated at 37 °C under continuous shaking at 150 rpm for 18 hours. After incubation, OD600 of each well was measured using a BioTek Synergy 2 microplate reader.

[2] = system: S. aureus ATCC 700699 and S. aureus ATCC 43300; assay: Spontaneous frequency-of-resistance assay; type: cell-based; conditions: for mutant prevention concentration (MPC): S. aureus ATCC 700699 (VISA), estimate
Description: Prior to plating, bacteria were grown overnight in MHBII medium at 37 °C, 250 rpm, collected by centrifugation, and washed once in equal volumes of MHBII broth. From this concentrated cell suspension (250 μL), approximately 10^10 cells were then plated to each MHBII agarose plates. […] All experiments were performed in at least 3 replicates. Plates were grown at 37 °C for 72 hours. Total CFUs were determined simultaneously in each experiment by plating appropriate dilutions to antibiotic-free MHBII agar plates. Finally, resistance frequencies for each strain were calculated by dividing the number of colonies formed after a 72-hour incubation at 37 °C by the initial viable cell count.

[3] = system: S. aureus USA300 (MRSA) BAA1556, S. aureus (VRSA) ECL2963646, S. aureus Mu50 (VISA) ATCC 700699; assay: S. aureus dermal infection model; type: in vivo, ICR mice; conditions: for Log CFU/Skin: 2% treatment, individual animals; for antibacterial activity after topical application: mouse skin infection, ointment twice daily, MRSA, VISA, VRSA, comparable to mupirocin, in words
Description: The testing strains, S. aureus USA300 (MRSA) BAA1556, S. aureus (VRSA) ECL2963646, and S. aureus Mu50 (VISA) ATCC 700699 were obtained from frozen stocks and thawed at room temperature. Next, an aliquot of 0.2 mL from each stock was transferred to 20 mL BHI broth and incubated at 37 °C with shaking (120 rpm) for 8 hours. Cells in 20 mL culture were pelleted by centrifugation, 3,500g for 15 minutes, and then resuspended in 10 mL cold PBS, then cells were diluted in PBS to obtain the inoculum sizes of 1×10^5 or 1× 10^6 CFU/mL, based on the testing strain’s virulence. In all cases, the actual colony counts were determined by plating dilutions in at least 3 replicates onto MHBII agar plates followed by 24 hours’ incubation and colony counting.
For dermal infections, groups of 5 female ICR mice weighing 24 ± 4 g, provided by BioLasco Taiwan (under a Charles River Laboratories Technology Licensee), were used. Animals were acclimated for 3 days prior to use and were confirmed to be in good health. Prior to infection, animals were anesthetized with etomidate-lipuro emulsion (20 mg /10 mL) at 20 mg/kg by IV injection, and then the fur on the back was removed by an electric shaver, and the epidermal layer was disrupted with an abrasive paper according to the protocol developed by Kugelberg and colleagues. Mice were inoculated topically on the wound area with testing strain suspension, 5 μL/mouse. The target inoculation densities were 1×10^5 or 1× 10^6 CFU/mL, based on the corresponding strain’s virulence. Following infection, animals were housed separately. […] Test articles were administered topically (20 μL/mouse) twice daily. One no-treatment group was euthanized at 1 hour after infection for initial bacterial counts, and the other treatment groups were dosed twice daily with the test compounds and sacrificed either at 25 hours or at 73 hours postinfection. Animals were euthanized with CO2 asphyxiation and the infected skin, a 2 cm^2 area, was excised. The skin samples of the wound infection (around 2 cm^2 areas) were then homogenized in 1 mL PBS (pH 7.4) with a polytron homogenizer. A 0.1 mL aliquot of each homogenate was used for serial 10-fold dilutions and plated onto MHBII agar plates for bacterial enumeration. Statistical significance (P <0.05) was assessed with 1-way ANOVA followed by Dunnett’s method. A significant (P <0.05) decrease in the bacterial counts of the treated animals compared with the vehicle control group was considered significant antimicrobial activity.

[4] = S. aureus ATCC 43300 (MRSA), pH 5.5
[5] = S. aureus ATCC 43300 (MRSA), pH 7.3
[6] = S. aureus ATCC 700699 (VISA), pH 5.5
[7] = S. aureus ATCC 700699 (VISA), pH 7.3
[8] = Staphylococcus aureus (MRSA) ATCC 43300, 2xMIC
[9] = Staphylococcus aureus (MRSA) ATCC 43300, 4xMIC
[10] = Staphylococcus aureus (MRSA) ATCC 43300, 8xMIC
[11] = Staphylococcus aureus (VISA) ATCC 700699, 2xMIC
[12] = Staphylococcus aureus (VISA) ATCC 700699, 4xMIC
[13] = Staphylococcus aureus (VISA) ATCC 700699, 8xMIC
[14] = Staphylococcus aureus ECL 2963646 (VRSA)
[15] = Staphylococcus aureus Mu50 ATCC 700699 (VISA)
[16] = Staphylococcus aureus USA300 (MRSA)

T1 sequence (P0C1S7 whole entry): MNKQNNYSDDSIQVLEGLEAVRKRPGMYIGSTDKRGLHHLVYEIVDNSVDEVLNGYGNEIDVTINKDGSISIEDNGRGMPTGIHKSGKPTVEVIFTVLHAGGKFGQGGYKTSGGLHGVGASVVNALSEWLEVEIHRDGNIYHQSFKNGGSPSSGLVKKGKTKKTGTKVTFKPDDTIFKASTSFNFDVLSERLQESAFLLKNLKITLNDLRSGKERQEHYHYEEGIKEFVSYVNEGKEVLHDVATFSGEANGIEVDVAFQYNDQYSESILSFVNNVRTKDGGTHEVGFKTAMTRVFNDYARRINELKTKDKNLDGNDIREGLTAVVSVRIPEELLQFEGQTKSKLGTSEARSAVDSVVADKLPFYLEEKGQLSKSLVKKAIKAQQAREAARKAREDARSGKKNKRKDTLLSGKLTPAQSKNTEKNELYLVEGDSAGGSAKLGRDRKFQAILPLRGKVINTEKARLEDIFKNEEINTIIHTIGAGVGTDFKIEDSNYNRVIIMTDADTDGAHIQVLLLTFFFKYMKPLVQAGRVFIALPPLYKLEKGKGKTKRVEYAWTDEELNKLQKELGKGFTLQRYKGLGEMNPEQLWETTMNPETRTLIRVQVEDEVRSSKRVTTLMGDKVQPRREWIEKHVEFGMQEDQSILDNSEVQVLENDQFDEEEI
T1 sequence (P0C1U9 whole entry, further chain): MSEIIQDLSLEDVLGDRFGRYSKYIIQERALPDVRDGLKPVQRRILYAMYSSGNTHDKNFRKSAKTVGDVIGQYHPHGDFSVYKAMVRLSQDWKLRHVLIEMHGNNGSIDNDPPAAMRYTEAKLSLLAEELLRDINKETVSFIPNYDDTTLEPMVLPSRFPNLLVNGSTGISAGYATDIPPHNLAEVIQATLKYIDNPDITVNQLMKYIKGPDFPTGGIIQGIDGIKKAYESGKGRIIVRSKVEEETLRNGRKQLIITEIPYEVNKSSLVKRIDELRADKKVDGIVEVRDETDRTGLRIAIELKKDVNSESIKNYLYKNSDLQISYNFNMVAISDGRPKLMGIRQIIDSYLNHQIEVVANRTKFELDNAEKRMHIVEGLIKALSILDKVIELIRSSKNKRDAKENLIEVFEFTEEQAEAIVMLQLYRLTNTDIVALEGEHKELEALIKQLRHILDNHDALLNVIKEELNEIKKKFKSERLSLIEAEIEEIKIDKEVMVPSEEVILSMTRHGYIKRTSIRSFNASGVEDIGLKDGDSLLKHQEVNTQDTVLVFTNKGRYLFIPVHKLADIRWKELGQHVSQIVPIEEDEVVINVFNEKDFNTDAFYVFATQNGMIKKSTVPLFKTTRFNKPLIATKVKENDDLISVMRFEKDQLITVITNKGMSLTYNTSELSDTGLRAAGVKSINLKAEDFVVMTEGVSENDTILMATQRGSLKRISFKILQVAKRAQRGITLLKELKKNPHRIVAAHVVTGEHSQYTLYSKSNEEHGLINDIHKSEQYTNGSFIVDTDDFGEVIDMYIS

| Compound | IC50 (in vitro) | Max. % inhibition at 100 µM (HepG2 cells) | IC50 [1] | MIC (S. aureus; [4]) | MIC (S. aureus; [5]) | MIC (S. aureus; [6]) | MIC (S. aureus; [7]) | resistant mutants emerged ([2]; 4×10^12 S. aureus ATCC 700699 (VISA) cells, 4 times the wild-type MIC, in words) | mutant prevention concentration (MPC) [2] | Spontaneous frequency-of-resistance (replicates) [2, 8] | Spontaneous frequency-of-resistance (replicates) [2, 9] | Spontaneous frequency-of-resistance (replicates) [2, 10] | Spontaneous frequency-of-resistance (replicates) [2, 11] | Spontaneous frequency-of-resistance (replicates) [2, 12] | Spontaneous frequency-of-resistance (replicates) [2, 13] | Log CFU/Skin [3, 14] | Log CFU/Skin [3, 15] | Log CFU/Skin [3, 16] | antibacterial activity after topical application [3] | resistant variants detected ([2]; exposure at 8-fold the wild-type MIC, S. aureus, in words) |
| --- | --- | --- | --- | --- | --- | --- | --- | --- | --- | --- | --- | --- | --- | --- | --- | --- | --- | --- | --- | --- |
| Cc1[nH]c(C(=O)Nc2nc3c(OCc4ccccc4)cc(C(=O)O)cc3s2)c(Cl)c1Cl [ULD2] | > 100000 nM | Max. % inhibition at 100 µM: 1.96% | 2 ± 0.3 nM | 0.008 µg/mL | 0.06 µg/mL | 0.0005 µg/mL | 0.02 µg/mL | no ULD2 resistant mutants have emerged | 0.08 µg/mL | 1.00E-12 and 1.529e-10 and 1.99e-10 and 7.692e-11 and 9.00E-10 and 1.80E-09 and 1.43E-10 | 5.00E-11 and 1.67E-10 and 7.14E-11 and 1.00E-12 | 1.00E-12 | 1.00E-12 and 8.77E-11 | 1.00E-12 | 1.00E-12 | 5.96 Log CFU/Skin and 5.93 Log CFU/Skin and 5.51 Log CFU/Skin and 5.91 Log CFU/Skin and 5.45 Log CFU/Skin | 4.76 Log CFU/Skin and 5.44 Log CFU/Skin and 5.93 Log CFU/Skin and 4.96 Log CFU/Skin and 5.73 Log CFU/Skin | 4.14 Log CFU/Skin and 4.81 Log CFU/Skin and 5.33 Log CFU/Skin and 6.64 Log CFU/Skin and 5.97 Log CFU/Skin | potent antibacterial activity | – |
| Cc1[nH]c(C(=O)Nc2nc3ccc(C(=O)O)cc3s2)c(Cl)c1Cl [ULD1] | > 100000 nM | Max. % inhibition at 100 µM: 1.53% | 9.3 ± 2.2 nM | 0.004 µg/mL | 0.1 µg/mL | 0.00025 µg/mL | 0.04 µg/mL | – | 0.16 µg/mL | 2e-9 and 2.769e-9 and 5.333e-10 and 1.1e-9 and 1.263e-9 and 2.587e-9 and 2.787e-9 and 2.50E-09 and 3.14E-09 and 4.80E-09 | 9.286e-10 and 7.692e-10 and 1.333e-10 and 5e-10 and 9.868e-10 and 1.045e-9 and 7.377e-10 and 1.30E-09 and 9.54E-10 and 1.09E-08 and 7.14E-11 | 1.00E-12 | 2.06e-9 and 1.815e-9 and 2.326e-9 and 1.86e-9 and 1.40E-09 and 7.33E-10 and 2.00E-09 and 1.64E-09 and 3.594e-9 and 2.426e-9 | 1.00E-12 and 3.109e-10 and 2.252e-10 and 3.243e-10 and 3.9801e-10 and 2.304e-10 and 2.871e-10 and 1.676e-10 | 1.00E-12 | 5.77 Log CFU/Skin and 5.81 Log CFU/Skin and 5.92 Log CFU/Skin and 6.59 Log CFU/Skin and 5.61 Log CFU/Skin | 5 Log CFU/Skin and 5.57 Log CFU/Skin and 5.65 Log CFU/Skin and 4.91 Log CFU/Skin and 5.98 Log CFU/Skin | 4.61 Log CFU/Skin and 3.68 Log CFU/Skin and 4.97 Log CFU/Skin and 3.75 Log CFU/Skin and 4.86 Log CFU/Skin | potent antibacterial activity | no resistant variants of S. aureus have been detected |
